Measured values from PMC8587938 (2021).

Tests used:
[1] = system: a2^12AP (DNA, G4, 2-aminopurine at 12 (replaces A)) GGGGTGTGGGGACAGGGGTGTGGGG; test: 2-aminopurine fluorescence quenching titration; settings: K+ 25 mM; K-phosphate buffer, pH 7.0, 20 °C; 30 µM DNA; significant quenching only above ligand–DNA ratio 1
[2] = system: a2 (DNA, G4) GGGGTGTGGGGACAGGGGTGTGGGG; test: 1H NMR / NOESY titration; settings: K+ 25 mM; K-phosphate buffer, pH 7.0, 25 °C, 2.0 mM a2; terminal stacking on G1-G11-G15-G25 quartet
[3] = system: a2^14AP (DNA, G4, 2-aminopurine at 14 (replaces A)) GGGGTGTGGGGACAGGGGTGTGGGG; test: 2-aminopurine fluorescence quenching titration; settings: K+ 25 mM; K-phosphate buffer, pH 7.0, 20 °C; 30 µM DNA; significant quenching only above ligand–DNA ratio 1
[4] = system: a2 (DNA, G4) GGGGTGTGGGGACAGGGGTGTGGGG; test: fluorimetric titration (ligand fluorescence quenching); settings: K+ 25 mM; K-phosphate buffer, pH 7.0, 20 °C; 20 μM ligand

## Cc1cc2c3c([n+](C)c4ccc(F)cc4c3c1)-c1cc(F)ccc1N2C
[1]
  binding: yes
[2]
  binding: yes
[3]
  binding: yes
[4]
  Kb: 1.4 ± 0.2 × 10^6 M^-1
